This is an account of results in publication PMC2680961, “Homologous desensitization of signalling by the alpha (α) isoform of the human thromboxane A2 receptor: A specific role for nitric oxide signalling” (Biochimica et Biophysica Acta, 2007).

One experiment has as its target T1, TPα^S145A (Homo sapiens, UniProt P21731, S145A).
T1 construct: expressed in transfected cells
T1 sequence (P21731 1-343 S145A): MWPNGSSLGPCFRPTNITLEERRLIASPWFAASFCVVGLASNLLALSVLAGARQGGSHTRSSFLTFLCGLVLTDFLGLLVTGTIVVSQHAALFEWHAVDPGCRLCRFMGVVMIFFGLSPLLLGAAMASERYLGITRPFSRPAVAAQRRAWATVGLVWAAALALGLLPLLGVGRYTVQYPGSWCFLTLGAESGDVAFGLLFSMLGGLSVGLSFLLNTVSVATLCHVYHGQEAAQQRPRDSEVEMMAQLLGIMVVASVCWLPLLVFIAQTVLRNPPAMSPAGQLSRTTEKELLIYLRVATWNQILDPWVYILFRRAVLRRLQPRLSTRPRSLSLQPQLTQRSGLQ
Briefly: [3H]SQ29,548 radioligand binding, Scatchard analysis, HEK.TPα^S145A. On the procedure:
(§1) Cells were harvested by centrifugation at 500×g at 4 °C for 5 min and washed three times with ice-cold Ca^2+/Mg^2+-free phosphate-buffered saline (PBS). TP radioligand binding assays were carried out at 30 °C for 30 min in 100 μl reactions in the presence of 0–40 nM [^3H] […] Protein determinations were carried out using the Bradford assay.
(§2) Radioligand binding and Scatchard analysis data were analysed using GraphPad Prisim V4.0 programme (GraphPad Software Inc., San Diego CA, USA). Statistical analyses were carried out using the unpaired Student's t test using the Statworks Analysis Package. p-values ≤ 0.01 indicated statistically significant differences.

The target in another experiment is T2, TPα^T337,S340A (Homo sapiens, UniProt P21731, S340A/T337A).
T2 construct: expressed in transfected cells
T2 sequence (P21731 1-343 T337A/S340A): T1 sequence (P21731 1-343 S145A) with A145S, T337A, S340A
Description: [3H]SQ29,548 radioligand binding, Scatchard analysis, HEK.TPα^T337,S340A. On the procedure: as §1, §2

The target in another experiment is T3, TPα^S331,T337A (Homo sapiens, UniProt P21731, S331A/T337A).
T3 construct: expressed in transfected cells
T3 sequence (P21731 1-343 S331A/T337A): T1 sequence (P21731 1-343 S145A) with A145S, S331A, T337A
Briefly: Agonist-mediated TP phosphorylation in whole cells, HEK.TPα^S331,T337A. In kind it is cell-based. Particulars: 1 μM U46619 10 min. On the procedure:
Agonist-mediated TP phosphorylation in whole cells (1.8–2 × 10^6 cells/10 cm dish) was performed essentially as previously described. Briefly, cells were transiently co-transfected with pADVA (10 μg), pCMV:Gαq (25 μg) plus pcDNA:βArrestin2 (25 μg) approximately 48 h prior to labelling. Thereafter, cells were washed once in phosphate-free DMEM, 10% dialysed FBS and were metabolically labelled for 60 min in the same medium (2 ml/10 cm dish) containing 100 μCi/ml [^32P] orthophosphate (8000–9000 Ci/mmol) at 37 °C, 5% CO2. Where appropriate, the PKG kinase inhibitor KT 5823 (50 nM) or its vehicle was added during the labelling period. Thereafter, U46619 (1 μM) or an equivalent volume of vehicle (0.01% ethanol in HBS; 20 μl) were added and cells were incubated for 10 min at 37 °C, 5% CO2. Reactions were terminated by transferring the dishes to ice and aspirating the labelled medium and HA-epitope tagged TP receptors were processed and immunoprecipitated using the anti-HA 101R antibody as previously described. Electroblots were then exposed to Xomat XAR (Kodak) film to detect ^32P-labelled proteins. Thereafter, blots were subject to phosphorimage analysis, and the intensities of agonist-induced phosphorylation were expressed in arbitrary units relative to basal (vehicle-stimulated) levels. […]

Where a chain is given by its changes, count along the chain named.

Consider `O=C(O)CCC/C=C\C[C@@H]1[C@H](CNNC(=O)Nc2ccccc2)[C@H]2CC[C@@H]1O2` [SQ29,548], for which the entries for the “Bmax (pmol/mg protein ± S.E.M.)” value on TPα^S145A and at TPα^T337,S340A were 3.03 ± 0.04 pmol/mg protein and 4.9 ± 0.04 pmol/mg protein, respectively.
`CCCCC[C@H](O)/C=C/[C@@H]1[C@@H](C/C=C\CCCC(=O)O)[C@H]2CO[C@@H]1C2` [U46619]: on TPα^S331,T337A, the “U46619-induced phosphorylation of TPα^S331,T337A” value is listed as “failed to undergo significant U46619-induced phosphorylation above basal levels”.
